Key:
Assay in all cases: radiometric filter-binding kinase assay, Kinase HotSpot
Settings in all cases: compound 0.5 µM; ATP 10 µM
AKT2 (human) = AKT2 (human) (UniProt P31751)
AURKB (human) = AURKB (human) (UniProt Q96GD4)
AXL (human) = AXL (human) (UniProt P30530)
CAMK2G (human) = CAMK2G (human) (UniProt Q13555)
CDK7 CCNH MNAT1 (human) = CDK7 CCNH MNAT1 (human) (UniProt P50613+P51948+P51946)
CSF1R (human) = CSF1R (human) (UniProt P07333)
CSNK1G1 (human) = CSNK1G1 (human) (UniProt Q9HCP0)
DYRK3 (human) = DYRK3 (human) (UniProt O43781)
EPHA4 (human) = EPHA4 (human) (UniProt P54764)
EPHB1 (human) = EPHB1 (human) (UniProt P54762)
EPHB4 (human) = EPHB4 (human) (UniProt P54760)
ERBB4 (human) = ERBB4 (human) (UniProt Q15303)
HCK (human) = HCK (human) (UniProt P08631)
HIPK2 (human) = HIPK2 (human) (UniProt Q9H2X6)
INSRR (human) = INSRR (human) (UniProt P14616)
ITK (human) = ITK (human) (UniProt Q08881)
JAK2 JH1 JH2 (human) = JAK2 JH1 JH2 (human) (UniProt O60674)
MAP2K2 (human) = MAP2K2 (human) (UniProt P36507)
MAPK12 (human) = MAPK12 (human) (UniProt P53778)
MAPK3 (human) = MAPK3 (human) (UniProt P27361)
MAPKAPK3 (human) = MAPKAPK3 (human) (UniProt Q16644)
MAPKAPK5 (human) = MAPKAPK5 (human) (UniProt Q8IW41)
MERTK (human) = MERTK (human) (UniProt Q12866)
MLTK (human) = MLTK (human) (UniProt Q9NYL2)
NEK4 (human) = NEK4 (human) (UniProt P51957)
NUAK1 (human) = NUAK1 (human) (UniProt O60285)
NUAK2 (human) = NUAK2 (human) (UniProt Q9H093)
PAK2 (human) = PAK2 (human) (UniProt Q13177)
PASK (human) = PASK (human) (UniProt Q96RG2)
PDGFRA (human) = PDGFRA (human) (UniProt P16234)
PDPK1 (human) = PDPK1 (human) (UniProt O15530)
PHKG2 (human) = PHKG2 (human) (UniProt P15735)
PKN1 (human) = PKN1 (human) (UniProt Q16512)
PKN2 (human) = PKN2 (human) (UniProt Q16513)
PRKACA (human) = PRKACA (human) (UniProt P17612)
PRKCE (human) = PRKCE (human) (UniProt Q02156)
PTK2 (human) = PTK2 (human) (UniProt Q05397)
PTK2B (human) = PTK2B (human) (UniProt Q14289)
SGK3 (human) = SGK3 (human) (UniProt Q96BR1)
SRPK1 (human) = SRPK1 (human) (UniProt Q96SB4)
STK10 (human) = STK10 (human) (UniProt O94804)
WNK3 (human) = WNK3 (human) (UniProt Q9BYP7)

Chain of HIPK2 (human) (Q9H2X6 whole entry, looked up): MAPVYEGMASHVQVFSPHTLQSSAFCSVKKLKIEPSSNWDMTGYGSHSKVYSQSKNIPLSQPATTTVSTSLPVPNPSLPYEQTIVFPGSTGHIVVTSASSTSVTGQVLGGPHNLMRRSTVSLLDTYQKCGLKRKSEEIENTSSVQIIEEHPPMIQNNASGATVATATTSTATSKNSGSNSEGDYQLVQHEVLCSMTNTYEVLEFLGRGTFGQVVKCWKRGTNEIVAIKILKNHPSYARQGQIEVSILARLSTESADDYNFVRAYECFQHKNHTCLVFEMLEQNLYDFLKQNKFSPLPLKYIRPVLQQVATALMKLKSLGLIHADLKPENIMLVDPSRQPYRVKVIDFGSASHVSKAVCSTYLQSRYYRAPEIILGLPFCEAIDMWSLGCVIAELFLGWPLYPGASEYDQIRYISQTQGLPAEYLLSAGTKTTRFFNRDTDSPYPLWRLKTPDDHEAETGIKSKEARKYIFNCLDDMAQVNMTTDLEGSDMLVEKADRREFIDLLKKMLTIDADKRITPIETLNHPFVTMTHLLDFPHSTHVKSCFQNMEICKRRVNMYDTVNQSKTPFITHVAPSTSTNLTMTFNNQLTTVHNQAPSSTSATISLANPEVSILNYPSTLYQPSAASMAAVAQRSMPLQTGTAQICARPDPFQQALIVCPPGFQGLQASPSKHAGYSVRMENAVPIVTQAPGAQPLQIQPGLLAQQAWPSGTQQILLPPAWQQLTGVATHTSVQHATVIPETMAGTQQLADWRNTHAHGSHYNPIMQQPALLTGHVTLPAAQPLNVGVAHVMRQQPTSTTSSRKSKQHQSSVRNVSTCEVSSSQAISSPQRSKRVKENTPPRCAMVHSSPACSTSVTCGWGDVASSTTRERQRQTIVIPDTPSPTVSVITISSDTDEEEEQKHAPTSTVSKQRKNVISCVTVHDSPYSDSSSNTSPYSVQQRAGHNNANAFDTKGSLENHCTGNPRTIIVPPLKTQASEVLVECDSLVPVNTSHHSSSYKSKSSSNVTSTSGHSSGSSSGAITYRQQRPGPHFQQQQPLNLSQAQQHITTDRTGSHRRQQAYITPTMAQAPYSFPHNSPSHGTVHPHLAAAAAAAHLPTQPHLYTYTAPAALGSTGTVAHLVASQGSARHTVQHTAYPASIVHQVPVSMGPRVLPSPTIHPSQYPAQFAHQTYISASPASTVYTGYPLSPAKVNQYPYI
Chain of JAK2 JH1 JH2 (human) (O60674 whole entry, looked up): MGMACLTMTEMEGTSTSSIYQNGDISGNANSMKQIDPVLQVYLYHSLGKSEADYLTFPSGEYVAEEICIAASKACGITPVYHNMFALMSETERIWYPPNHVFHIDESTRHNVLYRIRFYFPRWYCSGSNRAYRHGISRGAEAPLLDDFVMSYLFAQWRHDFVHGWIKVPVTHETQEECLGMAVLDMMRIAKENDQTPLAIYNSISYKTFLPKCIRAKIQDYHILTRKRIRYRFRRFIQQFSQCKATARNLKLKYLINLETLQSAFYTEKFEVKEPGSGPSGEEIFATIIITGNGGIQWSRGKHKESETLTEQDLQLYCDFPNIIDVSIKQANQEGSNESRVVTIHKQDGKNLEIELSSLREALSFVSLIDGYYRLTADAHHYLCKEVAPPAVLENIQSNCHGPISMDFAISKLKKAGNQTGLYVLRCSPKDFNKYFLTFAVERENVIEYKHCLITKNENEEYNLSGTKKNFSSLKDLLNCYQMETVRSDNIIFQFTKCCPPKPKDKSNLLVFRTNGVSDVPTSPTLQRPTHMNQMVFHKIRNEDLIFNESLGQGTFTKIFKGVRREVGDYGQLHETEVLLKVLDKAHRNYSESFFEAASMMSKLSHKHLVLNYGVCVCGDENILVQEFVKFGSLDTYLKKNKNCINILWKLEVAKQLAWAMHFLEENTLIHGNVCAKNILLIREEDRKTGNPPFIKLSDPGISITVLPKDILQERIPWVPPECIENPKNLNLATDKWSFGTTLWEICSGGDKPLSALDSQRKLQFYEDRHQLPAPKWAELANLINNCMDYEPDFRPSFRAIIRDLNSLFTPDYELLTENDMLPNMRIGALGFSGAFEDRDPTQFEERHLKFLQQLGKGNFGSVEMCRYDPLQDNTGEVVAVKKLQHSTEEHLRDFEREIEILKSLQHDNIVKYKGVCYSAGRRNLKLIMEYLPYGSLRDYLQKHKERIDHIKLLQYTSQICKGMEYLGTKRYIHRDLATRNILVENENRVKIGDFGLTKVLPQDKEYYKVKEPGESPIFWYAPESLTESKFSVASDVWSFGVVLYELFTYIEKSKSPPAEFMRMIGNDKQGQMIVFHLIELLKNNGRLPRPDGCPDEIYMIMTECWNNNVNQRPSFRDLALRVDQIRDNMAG
Chain of PKN2 (human) (Q16513 whole entry, looked up): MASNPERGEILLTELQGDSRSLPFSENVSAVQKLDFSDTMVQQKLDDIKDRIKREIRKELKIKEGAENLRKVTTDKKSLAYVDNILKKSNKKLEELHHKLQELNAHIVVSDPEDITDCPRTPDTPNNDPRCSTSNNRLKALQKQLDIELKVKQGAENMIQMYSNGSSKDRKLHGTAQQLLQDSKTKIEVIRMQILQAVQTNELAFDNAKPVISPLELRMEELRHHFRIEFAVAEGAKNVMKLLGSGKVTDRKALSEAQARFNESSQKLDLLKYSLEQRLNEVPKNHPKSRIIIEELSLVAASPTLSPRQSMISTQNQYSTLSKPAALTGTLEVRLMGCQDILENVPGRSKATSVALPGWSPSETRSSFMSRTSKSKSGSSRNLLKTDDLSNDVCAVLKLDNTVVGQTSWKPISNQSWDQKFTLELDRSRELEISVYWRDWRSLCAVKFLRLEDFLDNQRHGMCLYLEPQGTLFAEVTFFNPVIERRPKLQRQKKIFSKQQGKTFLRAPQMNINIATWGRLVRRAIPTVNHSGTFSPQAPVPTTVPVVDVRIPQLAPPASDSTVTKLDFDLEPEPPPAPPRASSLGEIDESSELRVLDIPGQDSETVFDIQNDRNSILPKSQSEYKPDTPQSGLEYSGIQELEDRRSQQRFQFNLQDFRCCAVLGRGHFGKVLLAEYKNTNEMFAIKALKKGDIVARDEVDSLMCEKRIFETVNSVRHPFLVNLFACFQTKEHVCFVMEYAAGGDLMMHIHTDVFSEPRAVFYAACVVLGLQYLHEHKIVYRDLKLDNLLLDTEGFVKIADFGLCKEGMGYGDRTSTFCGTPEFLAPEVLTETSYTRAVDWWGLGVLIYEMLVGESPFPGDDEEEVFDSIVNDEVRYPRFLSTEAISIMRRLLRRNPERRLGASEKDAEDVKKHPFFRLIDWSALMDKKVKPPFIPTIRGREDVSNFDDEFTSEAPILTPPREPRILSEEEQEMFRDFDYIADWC
Chain of AURKB (human) (Q96GD4 whole entry, looked up): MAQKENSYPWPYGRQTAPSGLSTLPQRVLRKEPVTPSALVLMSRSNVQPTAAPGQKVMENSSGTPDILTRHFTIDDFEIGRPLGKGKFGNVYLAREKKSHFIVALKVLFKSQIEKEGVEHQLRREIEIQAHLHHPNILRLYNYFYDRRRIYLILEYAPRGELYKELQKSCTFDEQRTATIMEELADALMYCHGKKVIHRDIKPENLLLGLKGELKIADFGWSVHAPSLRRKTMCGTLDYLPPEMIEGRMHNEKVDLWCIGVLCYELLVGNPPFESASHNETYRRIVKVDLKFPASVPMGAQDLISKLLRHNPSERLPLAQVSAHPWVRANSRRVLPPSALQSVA
Chain of INSRR (human) (P14616 whole entry, looked up): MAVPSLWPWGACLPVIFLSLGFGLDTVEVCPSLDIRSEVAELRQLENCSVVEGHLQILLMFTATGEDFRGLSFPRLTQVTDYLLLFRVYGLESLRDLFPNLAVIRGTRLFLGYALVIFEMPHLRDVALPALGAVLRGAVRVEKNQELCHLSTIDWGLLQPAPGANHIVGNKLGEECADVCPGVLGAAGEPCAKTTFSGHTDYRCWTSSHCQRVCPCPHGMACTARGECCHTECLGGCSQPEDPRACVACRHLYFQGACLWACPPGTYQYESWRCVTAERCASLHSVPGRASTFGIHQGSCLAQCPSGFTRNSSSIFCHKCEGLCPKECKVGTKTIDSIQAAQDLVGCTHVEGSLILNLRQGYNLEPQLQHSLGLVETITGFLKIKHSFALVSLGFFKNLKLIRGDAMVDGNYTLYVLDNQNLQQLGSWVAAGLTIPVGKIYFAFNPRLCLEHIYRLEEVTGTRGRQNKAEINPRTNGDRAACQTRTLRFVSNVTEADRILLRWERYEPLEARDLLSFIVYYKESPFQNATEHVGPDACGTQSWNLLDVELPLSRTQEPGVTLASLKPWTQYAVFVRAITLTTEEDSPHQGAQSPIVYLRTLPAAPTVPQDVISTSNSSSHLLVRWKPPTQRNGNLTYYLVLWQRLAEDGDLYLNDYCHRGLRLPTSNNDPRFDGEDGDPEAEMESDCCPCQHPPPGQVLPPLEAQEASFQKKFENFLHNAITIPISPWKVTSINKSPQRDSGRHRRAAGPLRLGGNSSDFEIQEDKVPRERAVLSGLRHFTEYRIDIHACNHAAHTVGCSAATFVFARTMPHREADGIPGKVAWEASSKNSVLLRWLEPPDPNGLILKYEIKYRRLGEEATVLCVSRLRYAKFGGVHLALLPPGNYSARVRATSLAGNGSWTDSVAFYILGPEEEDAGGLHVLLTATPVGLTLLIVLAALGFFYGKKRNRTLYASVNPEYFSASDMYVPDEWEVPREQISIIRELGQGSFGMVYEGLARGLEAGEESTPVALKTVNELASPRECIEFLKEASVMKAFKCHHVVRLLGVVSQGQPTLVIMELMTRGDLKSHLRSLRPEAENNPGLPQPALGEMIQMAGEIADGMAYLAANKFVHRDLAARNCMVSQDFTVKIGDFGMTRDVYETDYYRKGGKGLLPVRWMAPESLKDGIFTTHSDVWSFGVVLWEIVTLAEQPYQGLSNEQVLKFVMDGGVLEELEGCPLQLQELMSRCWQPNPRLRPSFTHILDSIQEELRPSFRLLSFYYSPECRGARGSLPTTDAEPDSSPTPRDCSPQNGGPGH

Nc1ccc2ncnc(NCCc3ccc(Oc4ccccc4)cc3)c2c1
residual activity (AKT2 (human)): 101% | residual activity (AURKB (human)): 99.1% | residual activity (AXL (human)): 96.1% | residual activity (CAMK2G (human)): 118% | residual activity (CDK7 CCNH MNAT1 (human)): 99.3% | residual activity (CSF1R (human)): 106% | residual activity (CSNK1G1 (human)): 97.6% | residual activity (DYRK3 (human)): 89.6% | residual activity (EPHA4 (human)): 98.5% | residual activity (EPHB1 (human)): 97.9% | residual activity (EPHB4 (human)): 104% | residual activity (ERBB4 (human)): 70.2% | residual activity (HCK (human)): 96.4% | residual activity (HIPK2 (human)): 110% | residual activity (INSRR (human)): 98.7% | residual activity (ITK (human)): 104% | residual activity (JAK2 JH1 JH2 (human)): 103% | residual activity (MAP2K2 (human)): 94.9% | residual activity (MAPK12 (human)): 93.6% | residual activity (MAPK3 (human)): 105% | residual activity (MAPKAPK3 (human)): 101% | residual activity (MAPKAPK5 (human)): 101% | residual activity (MERTK (human)): 102% | residual activity (MLTK (human)): 102% | residual activity (NEK4 (human)): 97.8% | residual activity (NUAK1 (human)): 94.7% | residual activity (NUAK2 (human)): 112% | residual activity (PAK2 (human)): 102% | residual activity (PASK (human)): 103% | residual activity (PDGFRA (human)): 98.5% | residual activity (PDPK1 (human)): 105% | residual activity (PHKG2 (human)): 98.7% | residual activity (PKN1 (human)): 105% | residual activity (PKN2 (human)): 89.7% | residual activity (PRKACA (human)): 88.6% | residual activity (PRKCE (human)): 109% | residual activity (PTK2 (human)): 98.6% | residual activity (PTK2B (human)): 95% | residual activity (SGK3 (human)): 106% | residual activity (SRPK1 (human)): 99.8% | residual activity (STK10 (human)): 90.8% | residual activity (WNK3 (human)): 114%

— the kinase profiling compilation of Christmann-Franck et al. (2016)
